Patent US8809549B2, “Esters of bendamustine and related compounds, and medical use thereof” (Arevipharma GmbH, priority 2012, dated 2014)

Legend:
[1] = test system: human malignant tumour cell lines; experiment: Comparative cytotoxicity, all cell lines investigated; type: cell-based; settings: against all human malignant tumour cell lines investigated (Table 1)
Method: (§1) For the determination of cytotoxicity two different assays were used depending on the characteristics of the treated cells. For adherently growing cells the crystal violet assay^[b] was used. Instead of complete removal of the conditioned culture medium, 100 μl of fresh medium, containing a two-fold higher concentration of the test compounds than the desired final concentration were added 2-3 days after seeding the cells at a density of about 5000 cells/well (100 μl).
(§2) For loosely adherent cells and cells growing in suspension, the MTT-assay^[a] was used. Suspension cells were seeded at a density of 8000 cells/well (100 μl). In case of suspension cells, 100 μl of medium, containing the test compounds bendamustine HCl and bendamustine mofetil ester (or bendamustine methyl ester), were added directly after seeding of the cells. Loosely adherent cells were seeded at a density of 5000 cells/well (100 μl) and treated as described for the crystal violet assay.
In all cases, one plate was measured at the time, when substances were added (t0-plate). The MTT-(2.5 mg/ml) solution (PBS) was freshly prepared for each measurement. 20 μl of this solution were added per well (100 μl) of each plate at subsequent days. Incubation period with MTT was 3 hours at 37° C. […] Absorbance was measured at a wavelength of 580 nm. […]

[2] = test system: MG-63 (osteosarcoma, ATCC CRL-1427); experiment: Cytotoxicity, crystal violet assay, MG-63; type: cell-based, human
Method: as §1
(§3) Eight different human cancer cell lines were treated according to the above general procedure for comparative determination of cytotoxicity of bendamustine-HCl and bendamustine mofetil ester.

[3] = test system: HEL92.1.7 (erythroleukemia, ATCC TIB-180); experiment: Cytotoxicity, MTT assay, HEL92.1.7; type: cell-based, human
Method: as §2
(§4) In all cases, one plate was measured at the time, when substances were added (t0-plate). The MTT-(2.5 mg/ml) solution (PBS) was freshly prepared for each measurement. 20 μl of this solution were added per well (100 μl) of each plate at subsequent days. Incubation period with MTT was 3 hours at 37° C. After incubation, the plates were centrifuged, and the medium was removed to a residual volume of 50 μl per well. Then, 100 μl of DMSO were added, and the plates were shaken for 1 hour. Absorbance was measured at a wavelength of 580 nm.
as §3

[4] = test system: Capan-1 (pancreatic carcinoma, ATCC HTB-80); experiment: Cytotoxicity, crystal violet assay, Capan-1; type: cell-based, human
Method: as §1, §3

[5] = test system: SK-ES1 (Ewing sarcoma, ATCC HTB-86); experiment: Cytotoxicity, MTT assay, SK-ES1; type: cell-based, human
Method: as §2, §4, §3

[6] = test system: LnCap clone FGC (prostate cancer, metastasis of a subclavicular lymph node, ATCC CRL-1740); experiment: Cytotoxicity, MTT assay, LnCap clone FGC; type: cell-based, human
Method: as §2, §4, §3

[7] = test system: Jurkat (acute T-cell leukemia, ATCC TIB-152); experiment: Cytotoxicity, MTT assay, Jurkat; type: cell-based, human
Method: as §2, §4, §3

[8] = test system: U-937 (histocytic lymphoma, ATCC CRL-1593.2); experiment: Cytotoxicity, MTT assay, U-937; type: cell-based, human
Method: as §2, §4, §3

[9] = test system: NCl-H460 (large cell bronchial carcinoma, ATCC HTB-177); experiment: Cytotoxicity, crystal violet assay, NCl-H460; type: cell-based, human
Method: as §1, §3

[10] = Homo sapiens, long-term exposure (96 h), MTT assay, errors as 95% confidence intervals

Cn1c(CCCC(=O)OCCN2CCOCC2)nc2cc(N(CCCl)CCCl)ccc21 [bendamustine mofetil ester, 2-morpholinoethyl 4-(5-(bis(2-chloroethyl)amino)-1-methyl-1H-benzo[d]imidazol-2-yl)butanoate]
cytotoxicity compared to bendamustine-HCl [1]: remarkably enhanced cytotoxicity
IC50 ([2]; Homo sapiens, MG-63, long-term exposure (96 h), crystal violet assay, errors as 95% confidence intervals): 3.4 ± 0.7 µM
ratio (IC50 bendamustine-HCl / IC50 bendamustine mofetil ester) ([2]; MG-63, 96 h): 16.2
ratio (IC50 bendamustine-HCl / IC50 bendamustine mofetil ester) ([3]; HEL92.1.7, 96 h): 24.7
IC50 ([3]; Homo sapiens, HEL 92.1.7, HEL92.1.7, long-term exposure (96 h), MTT assay, errors as 95% confidence intervals): 3.4 ± 0.4 µM
ratio (IC50 bendamustine-HCl / IC50 bendamustine mofetil ester) ([4]; Capan-1, 96 h): 19.4
IC50 ([4]; Homo sapiens, Capan-1, long-term exposure (96 h), crystal violet assay, errors as 95% confidence intervals): 1.3 ± 0.3 µM
IC50 ([5]; Homo sapiens, SK-ES1, long-term exposure (96 h), MTT assay, errors as 95% confidence intervals): 0.9 ± 0.2 µM
ratio (IC50 bendamustine-HCl / IC50 bendamustine mofetil ester) ([5]; SK-ES1, 96 h): 12.2
ratio (IC50 bendamustine-HCl / IC50 bendamustine mofetil ester) ([6]; 96 h): 34.1
IC50 [6, 10]: 2.1 ± 0.6 µM
ratio (IC50 bendamustine-HCl / IC50 bendamustine mofetil ester) ([7]; 96 h): 10.1
IC50 [7, 10]: 4.2 ± 0.3 µM
IC50 ([8]; Homo sapiens, U-937, long-term exposure (96 h), MTT assay, errors as 95% confidence intervals): 4.2 ± 0.9 µM
ratio (IC50 bendamustine-HCl / IC50 bendamustine mofetil ester) ([8]; U-937, 96 h): 21.9
IC50 ([9]; Homo sapiens, NCl-H460, long-term exposure (96 h), crystal violet assay, errors as 95% confidence intervals): 8.6 ± 0.6 µM
ratio (IC50 bendamustine-HCl / IC50 bendamustine mofetil ester) ([9]; NCl-H460, 96 h): 10.4
